# Measurements published in patent US20100317850A1 (priority 2008, published 2010).
# pIC50: −log10 of the molar value.
# Tested on: Aβ42 production
# Test: Quantification of Aβ peptide in culture of neurons from rat fetus brain (Aβ ELISA)
# Type: cell-based
# Conditions: Neuron, 72 h; rat primary neuronal culture (cerebral cortex, embryonic day 18 Wistar rats); medium collected three days after addition of the compound; Aβx-42 ELISA; read-out: Aβ42 production reducing effect IC50
# Description: Quantification of Aβ Peptide in Culture of Neurons from Rat Fetus Brain
# (1) Rat Primary Neuronal Culture
# Primary neuronal cultures were prepared from the cerebral cortex of embryonic day 18 Wistar rats (Charles River Japan, Yokohama, Japan). Specifically, the embryos were aseptically removed from pregnant rats under ether anesthesia. The brain was isolated from the embryo and immersed in an ice-cold L-15 medium (such as Invitrogen Corp. Cat #11415-064, Carlsbad, Calif., USA, or SIGMA L1518). The cerebral cortex was collected from the isolated brain under a stereoscopic microscope. The cerebral cortex fragments collected were enzymatically treated in an enzyme solution containing 0.25% trypsin (Invitrogen Corp. Cat #15050-065, Carlsbad, Calif., USA) and 0.01% DNase (Sigma D5025, St. Louis, Mo., USA) at 37° C. for 30 minutes to disperse the cells. Here, the enzymatic reaction was stopped by adding inactivated horse serum to the solution. The enzymatically treated solution was centrifuged at 1,500 rpm for five minutes to remove the supernatant. 5 to 10 mL of a medium was added to the resulting cell mass. Neurobasal medium (Invitrogen Corp. Cat #21103-049, Carlsbad, Calif., USA) supplemented with 2% B27 supplement (Invitrogen Corp. Cat #17504-044, Carlsbad, Calif., USA), 25 μM 2-mercaptoethanol (2-ME, WAKO Cat #139-06861, Osaka, Japan), 0.5 mM L-glutamine (Invitrogen Corp. Cat #25030-081, Carlsbad, Calif., USA), and Antibiotics-Antimycotics (Invitrogen Corp. Cat #15240-062, Carlsbad, Calif., USA) was used as the medium (Neurobasal/B27/2-ME). However, the above Neurobasal medium not supplemented with 2-ME (Neurobasal/B27) was used for the assay. The cells were redispersed by mild pipetting of the cell mass to which the medium was added. The cell dispersion was filtered through a 40-μm nylon mesh (Cell Strainer, Cat #35-2340, Becton Dickinson Labware, Franklin Lakes, N.J., USA) to remove the remaining cell mass, and thus a neuronal cell suspension was obtained. The neuronal cell suspension was diluted with the medium and then plated in a volume of 100 μL/well at an initial cell density of 5×10^5 cells/cm^2 in a 96-well polystyrene culture plate pre-coated with poly-L or D-lysine (Falcon Cat #35-3075, Becton Dickinson Labware, Franklin Lakes, N.J., USA coated with poly-L-lysine using the method shown below, or BIOCOAT™ cell environments Poly-D-lysine cell ware 96-well plate, Cat #35-6461, Becton Dickinson Labware, Franklin Lakes, N.J., USA). Poly-L-lysine coating was carried out as follows. 100 μg/mL of a poly-L-lysine (SIGMA P2636, St. Louis, Mo., USA) solution was aseptically prepared with a 0.15 M borate buffer (pH 8.5). […] of the solution was added to the 96-well polystyrene culture plate and incubated at room temperature for one or more hours or at 4° C. overnight or longer. Thereafter, the coated 96-well polystyrene culture plate was washed with sterile water four or more times, and then dried or rinsed with, for example, sterile PBS or medium, and used for cell plating. The plated cells were cultured in the culture plate at 37° C. in 5% CO2-95% air for one day. Then, the total amount of the medium was replaced with a fresh Neurobasal™/B27/2-ME medium, and then the cells were cultured for further three days.
# The drug was added to the culture plate on Day 4 of culture as follows. The total amount of the medium was removed from the wells, and 180 μL/well of Neurobasal medium not containing 2-ME and containing 2% B-27 (Neurobasal/B27) was added thereto. A solution of the test compound in dimethyl sulfoxide (hereinafter abbreviated as DMSO) was diluted with Neurobasal/B27 to a concentration 10-fold higher than the final concentration. 20 μL/well of the dilution was added to and sufficiently mixed with the medium. The final DMSO concentration was 1% or less. Only DMSO was added to the control group.
# The cells were cultured for three days after addition of the compound, and the total amount of the medium was collected. […]
row,SMILES,pIC50
1,"NC1=N[C@@]2(c3cc(NC(=O)c4ccc(OC(F)F)cn4)ccc3F)CCOC[C@H]2CS1 (relative stereo) [Example 81, N-[3-((4aS*,8aS*)-2-amino-4a,5,7,8-tetrahydro-4H-6-oxa-3-thia-1-azanaphthalen-8a-yl)-4-fluorophenyl]-5-difluoromethoxypyridine-2-carboxamide]",7.85
2,"CCO[C@H]1C[C@H]2CSC(N)=N[C@@]2(c2cc(NC(=O)c3ccc(C#N)cn3)ccc2F)C1 (relative stereo) [Example 89, (+)-N-[3-((4aR*,6S*,7aS*)-2-amino-6-ethoxy-4a,5,6,7-tetrahydro-4H-cyclopenta[d][1,3]thiazin-7a-yl)-4-fluorophenyl]-5-cyanopyridine-2-carboxamide]",8.49
3,"CCO[C@@H]1C[C@H]2CSC(N)=N[C@@]2(c2cc(NC(=O)c3ccc(C#N)cn3)ccc2F)C1 (relative stereo) [Example 90, (+)-N-[3-((4aR*,6R*,7aS*)-2-amino-6-ethoxy-4a,5,6,7-tetrahydro-4H-cyclopenta[d][1,3]thiazin-7a-yl)-4-fluorophenyl]-5-cyanopyridine-2-carboxamide]",8.60
4,"N#Cc1ccc(C(=O)Nc2ccc(F)c([C@]34C[C@H](F)C[C@H]3CSC(N)=N4)c2)nc1 (relative stereo) [Example 91, (+)-N-[3-((4aR*,6R*,7aS*)-2-amino-6-fluoro-4a,5,6,7-tetrahydro-4H-cyclopenta[d][1,3]thiazin-7a-yl)-4-fluorophenyl]-5-cyanopyridine-2-carboxamide]",8.85
5,"CO[C@H]1C[C@H]2CSC(N)=N[C@@]2(c2cc(NC(=O)c3cnc(C(F)F)cn3)ccc2F)C1 (relative stereo) [Example 92, (+)-N-[3-((4aR*,6S*,7aS*)-2-amino-6-methoxy-4a,5,6,7-tetrahydro-4H-cyclopenta[d][1,3]thiazin-7a-yl)-4-fluorophenyl]-5-difluoromethylpyrazine-2-carboxamide]",8.30
6,"CO[C@@H]1C[C@H]2CSC(N)=N[C@@]2(c2cc(NC(=O)c3cnc(C(F)F)cn3)ccc2F)C1 (relative stereo) [Example 93, (+)-N-[3-((4aR*,6R*,7aS*)-2-amino-6-methoxy-4a,5,6,7-tetrahydro-4H-cyclopenta[d][1,3]thiazin-7a-yl)-4-fluorophenyl]-5-difluoromethylpyrazine-2-carboxamide]",8.52
7,"N#Cc1ccc(C(=O)Nc2ccc(F)c([C@]34CC(F)(F)C[C@H]3CSC(N)=N4)c2)nc1 (relative stereo) [Example 94, (+)-N-[3-((4aR*,7aS*)-2-amino-6,6-difluoro-4a,5,6,7-tetrahydro-4H-cyclopenta[d][1,3]thiazin-7a-yl)-4-fluorophenyl]-5-cyanopyridine-2-carboxamide]",8.70
8,CO[C@@H]1C[C@H]2CSC(N)=N[C@@]2(c2cc(NC(=O)c3cnc(OC(F)F)cn3)ccc2F)C1 (relative stereo) [Example 95],9.00
9,"CO[C@@H]1C[C@H]2CSC(N)=N[C@@]2(c2cc(NC(=O)c3cnc(OCF)cn3)ccc2F)C1 (relative stereo) [Example 96, (+)-N-[3-((4aR*,6R*,7aS*)-2-amino-6-methoxy-4a,5,6,7-tetrahydro-4H-cyclopenta[d][1,3]thiazin-7a-yl)-4-fluorophenyl]-5-fluoromethoxypyrazine-2-carboxamide]",9.00
10,"NC1=N[C@@]2(c3cc(NC(=O)c4cnc(OC(F)F)cn4)ccc3F)C[C@H](F)C[C@H]2CS1 (relative stereo) [Example 98, (+)-N-[3-((4aR*,6R*,7aS*)-2-amino-6-fluoro-4a,5,6,7-tetrahydro-4H-cyclopenta[d][1,3]thiazin-7a-yl)-4-fluorophenyl]-5-difluoromethoxypyrazine-2-carboxamide]",9.00
11,"CO[C@@H]1C[C@H]2CSC(N)=N[C@@]2(c2cc(NC(=O)c3ccc(Cl)cn3)ccc2F)C1 (relative stereo) [Example 99, (+)-N-[3-((4aR*,6R*,7aS*)-2-amino-6-methoxy-4a,5,6,7-tetrahydro-4H-cyclopenta[d][1,3]thiazin-7a-yl)-4-fluorophenyl]-5-chloropyridine-2-carboxamide]",9.00
12,"CO[C@@H]1C[C@H]2CSC(N)=N[C@@]2(c2cc(NC(=O)c3ccc(OC(F)F)cn3)ccc2F)C1 (relative stereo) [Example 100, (+)-N-[3-((4aR*,6R*,7aS*)-2-amino-6-methoxy-4a,5,6,7-tetrahydro-4H-cyclopenta[d][1,3]thiazin-7a-yl)-4-fluorophenyl]-5-difluoromethoxypyridine-2-carb oxamide]",8.70
13,"CCCCO[C@@H]1C[C@H]2CSC(N)=N[C@@]2(c2cc(NC(=O)c3ccc(C#N)cn3)ccc2F)C1 (relative stereo) [Example 108, (+)-N-[3-((4aR*,6R*,7aS*)-2-amino-6-butoxy-4a,5,6,7-tetrahydro-4H-cyclopenta[d][1,3]thiazin-7a-yl)-4-fluorophenyl]-5-cyanopyridine-2-carboxamide]",9.00
14,"CCCCO[C@H]1C[C@H]2CSC(N)=N[C@@]2(c2cc(NC(=O)c3ccc(C#N)cn3)ccc2F)C1 (relative stereo) [Example 109, (+)-N-[3-((4aR*,6S*,7aS*)-2-amino-6-butoxy-4a,5,6,7-tetrahydro-4H-cyclopenta[d][1,3]thiazin-7a-yl)-4-fluorophenyl]-5-cyanopyridine-2-carboxamide]",8.74
15,"N#Cc1ccc(C(=O)Nc2ccc(F)c([C@]34C[C@@H](F)C[C@H]3CSC(N)=N4)c2)nc1 (relative stereo) [Example 110, (+)-N-[3-((4aR*,6S*,7aS*)-2-amino-6-fluoro-4a,5,6,7-tetrahydro-4H-cyclopenta[d][1,3]thiazin-7a-yl)-4-fluorophenyl]-5-cyanopyridine-2-carboxamide]",8.30
16,"N#Cc1ccc(C(=O)Nc2ccc(F)c([C@]34CCO[C@H](CF)[C@H]3CSC(N)=N4)c2)nc1 (relative stereo) [Example 143, N-[3-((4aS*,5S*,8aS*)-2-amino-5-fluoromethyl-4a,5,7,8-tetrahydro-4H-6-oxa-3-thia-1-azanaphthalen-8a-yl)-4-fluorophenyl]-5-cyanopyridine-2-carboxamide]",7.80
17,"NC1=N[C@@]2(c3cc(NC(=O)c4cnc(OCF)cn4)ccc3F)CCO[C@H](CF)[C@H]2CS1 (relative stereo) [Example 144, N-[3-((4aS*,5S*,8aS*)-2-amino-5-fluoromethyl-4a,5,7,8-tetrahydro-4H-6-oxa-3-thia-1-azanaphthalen-8a-yl)-4-fluorophenyl]-5-fluoromethoxypyrazine-2-carboxamide]",7.96
18,"NC1=N[C@@]2(c3cc(NC(=O)c4cnc(OC(F)F)cn4)ccc3F)CCO[C@H](CF)[C@H]2CS1 (relative stereo) [Example 145, N-[3-((4aS*,5S*,8aS*)-2-amino-5-fluoromethyl-4a,5,7,8-tetrahydro-4H-6-oxa-3-thia-1-azanaphthalen-8a-yl)-4-fluorophenyl]-5-difluoromethoxypyrazine-2-carboxamide]",8.52
19,"NC1=N[C@@]2(c3cc(NC(=O)c4cnc(C(F)F)cn4)ccc3F)CCO[C@H](CF)[C@H]2CS1 (relative stereo) [Example 146, N-[3-((4aS*,5S*,8aS*)-2-amino-5-fluoromethyl-4a,5,7,8-tetrahydro-4H-6-oxa-3-thia-1-azanaphthalen-8a-yl)-4-fluorophenyl]-5-difluoromethylpyrazine-2-carboxamide]",7.49
